From PMC12024814, “Ruthenium(II)–Arene Complexes with a 2,2′-Bipyridine Ligand as Anti-Aβ Agents” (Biomolecules, 2025)

Legend:
Aβ40 = target: T1, Aβ40 (Homo sapiens, UniProt P05067); experiment: Dynamic light scattering (DLS) of ThT assay samples; format: biochemical; conditions: for DLS prominent peak particle size / DLS minor feature share of the total spectrum / DLS minor feature particle size: Aβ40 co-incubated with complex 6 h; for DLS prominent peak particle size: PBS pH 7.4, 37 °C, Aβ40 alone around 340 nm; for DLS minor feature share of the total spectrum: Aβ40 alone 13 percent; for DLS minor feature particle size: Aβ40 alone 78 nm; for Ranking DLS: scale 1 to 5 (1 = best, 5 = worst)
T1 construct: Lyophilized Aβ40 was monomerized following previous procedures; purchased GenScript
T1 sequence (P05067 672-711 limits assumed): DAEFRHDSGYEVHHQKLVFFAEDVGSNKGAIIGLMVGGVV
Method: Samples were extracted from the ThT assay plate for DLS analysis. A 125 μL sample was placed into a 1 mL syringe and injected through a syringe filter (pore size: 0.2 μm), into a 0.5 mL microcentrifuge tube. The filtrate was added to a microvolume polystyrene cuvette and placed into a Malvern Zetasizer Nano ZSP to measure the DLS spectra. Measurements are represented as an average of percent intensity through several runs determined by Zetasizer software Version 7.13.1.
Samples for DLS analysis were taken directly from the ThT assay following its completion. This allowed for a comparison between both data sets, to determine if a correlation for activity between the complexes could be established. For the Aβ40 peptide alone, a prominent peak around 340 nm was observed, while following treatment with the respective Ru complexes, a discernable shift to smaller particle sizes was unanimously observed (Figure 6).

[1] = Log D7.4 (1-octanol/PBS shake method, absorbance); format: physicochemical; conditions: 1-octanol/PBS pH 7.4, 50 μM, 2 h mixing at room temperature
Method: A stock solution was prepared from each Ru complex using dimethyl sulfoxide (DMSO), then diluted to 6 mL and a concentration of 50 μM using phosphate-buffered saline (PBS, pH 7.4), where the final DMSO concentration was less than 5%. The absorbance spectra were measured, then 6 mL of 1-octanol was added, and the resulting biphasic sample was mixed at room temperature for 2 h using an IKA Trayster inversion mixer (60 rpm). Following this, the aqueous layer was extracted, and its absorbance spectra were measured. Log D values were determined using the equation below: LogD7.4=logAbs @ λmax before mixing/Abs @ λmax after mixing−1
The ability of Aβ-targeting therapeutics to cross the blood–brain barrier (BBB) is essential for their success. […] For predicting passage across the BBB, one metric that is used is the n-octanol/water partition coefficient of the molecule (log P). For Ru therapeutics, pH can play an important role in the speciation and stability of the complex; therefore, the determination of log D was performed. For such an analysis, the complexes were initially dissolved in DMSO, then diluted using PBS. After initial absorption measurements, the aqueous samples were mixed with an equal volume of 1-octanol for 2 h. The short mixing time is necessary to minimize any ligand exchange that may occur (vide infra), while still providing an accurate value for the partitioning. […] To the best of our knowledge, the partitioning for these complexes has not been evaluated previously, while the values obtained are similar to previous Ru(II)–arene complexes with bidentate ligands.

[2] = target: T2, human serum albumin (HSA) (Homo sapiens, UniProt P02768); experiment: Protein binding assay, dansyl glycine (DG) displacement, Sudlow site II; conditions: for Log K (DG), conditional binding constant to serum albumin: dansyl glycine probe, Sudlow site II, Stern–Volmer slope, HSA and DG 2.5 μM, PBS; for Ranking HSA: scale 1 to 5 (1 = best, 5 = worst), binding to HSA
T2 construct: purchased Sigma Aldrich
T2 sequence (P02768 25-609): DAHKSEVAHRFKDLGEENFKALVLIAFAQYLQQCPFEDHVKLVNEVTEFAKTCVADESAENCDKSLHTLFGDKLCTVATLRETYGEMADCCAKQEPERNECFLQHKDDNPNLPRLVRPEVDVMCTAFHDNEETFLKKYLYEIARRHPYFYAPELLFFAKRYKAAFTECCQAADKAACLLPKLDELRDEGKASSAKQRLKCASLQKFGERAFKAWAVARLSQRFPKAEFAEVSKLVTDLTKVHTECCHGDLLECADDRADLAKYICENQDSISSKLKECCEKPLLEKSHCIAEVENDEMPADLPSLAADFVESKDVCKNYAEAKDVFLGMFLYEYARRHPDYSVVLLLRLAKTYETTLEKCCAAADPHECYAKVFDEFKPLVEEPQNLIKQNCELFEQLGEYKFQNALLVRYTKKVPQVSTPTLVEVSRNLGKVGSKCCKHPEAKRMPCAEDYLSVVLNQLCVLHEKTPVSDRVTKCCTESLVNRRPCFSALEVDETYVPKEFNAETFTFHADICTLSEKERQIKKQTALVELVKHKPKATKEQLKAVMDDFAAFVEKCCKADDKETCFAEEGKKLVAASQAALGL
Method: A stock of human serum albumin (HSA, 100 μM) was prepared using PBS, while the probes dansyl glycine (DG) and warfarin (WF) were prepared by initially dissolving them in DMSO and diluting them with PBS until the concentration of DMSO was less than 5%. Solutions of each Ru complex were prepared by initial dissolution in DMSO and subsequent dilution using PBS until the concentration of DMSO was less than 5%. The total volume of each sample was 3.5 mL, where the concentration of HSA and DG/WF was 2.5 μM throughout the experiment. The Ru concentration ranged from 0 μM to 62.5 μM, with an increase of 12.5 μM for each sample. In total, six samples were prepared for each protein binding assay. After preparation, the samples were placed on an IKA Trayster inversion mixer (60 rpm) for 30 s and incubated at approximately 28 °C in a Neslab gp-200 for 15 min, before being placed back on the inversion mixer (60 rpm) for 30 s. All fluorescence measurements for the protein binding assay were made using a PTI QuantiMaster 50, and the samples were measured at room temperature with conditions respective to the probe.
One important consideration for a potential AD therapeutic is its interaction with serum proteins, specifically albumin (HSA). […] To determine the potential association of the prepared Ru complexes with HSA, a protein binding assay was performed. For these studies, the displacement of two fluorometric probes was used to determine the relative affinity of the Ru complexes for two of the established binding sites on HSA. The first probe, warfarin (WF), an anticoagulant, binds selectively to Sudlow site I on HSA [55], while the second probe used was dansyl glycine (DG), which selectively binds to Sudlow site II on HSA [56]. As these are the two major binding sites on the protein, the probes allow for observations of binding events that occur within these hydrophobic pockets. Individually, the probes were initially mixed with HSA, followed by increasing amounts of the respective Ru complexes, whereby the decrease in fluorescence signals from the respective probes (Figures S22–S30) was used to construct a Stern–Volmer plot, where the slope of the line represents the conditional binding constant (K’) for the respective Ru complexes to each site (Figure 8).

Compound | DLS prominent peak particle size (Aβ40) [nm] | DLS minor feature share of the total spectrum (Aβ40) [%] | DLS minor feature particle size (Aβ40) [nm] | Ranking DLS (Aβ40) | Log D7.4 [1] | Log K (DG), conditional binding constant to serum albumin [2] | Ranking HSA [2]
Cc1ccc(C(C)C)cc1.F[P-](F)(F)(F)(F)F.[Cl-].[Ru+2].c1ccc(-c2ccccn2)nc1 [RuB, [Ru(η^6-p-cymene)(2,2′-bipyridine)Cl]PF6] | 227 | 4 | 21 | 3 | −1.90 ± 0.15 | 3.96 | 3
Cc1ccc(C(C)C)cc1.Cc1ccnc(-c2cc(C)ccn2)c1.F[P-](F)(F)(F)(F)F.[Cl-].[Ru+2] [RuBMe, [Ru(η^6-p-cymene)(4,4′-dimethyl-2,2′-bipyridine)Cl]PF6] | 214 | 2 | 24 | 1 | −0.99 ± 0.13 | 3.99 | 4
[Ru(η^6-p-cymene)(4,4′-di-tert-butyl-2,2′-bipyridine)Cl]PF6 [RuBtB] | 264 | 4 | 53 | 5 | 0.84 ± 0.03 | 3.85 | 1
[Ru(η^6-p-cymene)(4,4′-diamino-2,2′-bipyridine)Cl]PF6 [RuBA] | 231 | 3 | 42 | 4 | −0.55 ± 0.03 | 4.07 | 5
[Ru(η^6-p-cymene)(4,4′-dimethoxy-2,2′-bipyridine)Cl]PF6 [RuBMeO] | 239 | 11 | 32 | 2 | −0.74 ± 0.08 | 3.91 | 2
